Test results as given in patent US10624917B2, “Compositions and methods useful for treating or preventing liver diseases or disorders, and promoting weight loss” (YALE UNIVERSITY, priority 2014, dated 2020).

System: Il1b and other genes in PECs
Experiment: Quantitative real-time RT-PCR gene expression in PECs
Type: cell-based, mouse
Details: for ability to supersede LPS tolerance for TIMP-1, VEGF and GLUT-1 gene expression / expression level of IL6 / expression level of Il1b / expression level of Il4: LPS primed PECs; for expression level of IL6 / expression level of Il1b / expression level of Il4: over 6 and 24 hours; for Il1b mRNA expression: PECs pretreated with LPS for 16 hours (LPS tolerant)
Method: FIGS. 3A-3I illustrate the finding that adenosine supersedes LPS induced tolerance and increases IL-1β production by upregulating transcription of pro-IL-1β via cAMP-PKA pathway. PECs were used in all of the following experiments. FIG. 3A: Primed (pri) with LPS (100 ng/ml) for 16 hours followed by stimulation (stim) with LPS (100 ng/ml), or NECA (10 μM) or CGS21680 (10 μM) in the presence or absence of LPS (100 ng/ml) for 6 hours. FIG. 3B: Treated with forskolin for 6 hours as indicated doses with and without LPS priming FIG. 3C: Treated with or without NECA (10 μM), CGS21680 (10 μM) or db-cAMP (200 μM) for 6 hours. FIG. 3D: LPS primed and treated with NECA or CGS21680 in the presence and absence of SQ22536, H89 and PKi. FIG. 3E: Primed with LPS for 16 hours and treated with ATP for 20 min, followed by CGS 21680 in the presence or absence of the adenylyl cyclase and PKA inhibitors SQ22536 and H-89. FIG. 3F: Primed with LPS and treated with or without NECA (10 μM) or db-cAMP (200 μM) for 6 hours. FIG. 3G: Treated with or without CGS21680 (10 μM) for 3 hours, and transcription was stopped by adding […] actinomycin D, and RNA samples collected at indicated times-points. FIG. 3H: LPS primed PECs obtained from wild type or A2AR-cKO mice were stimulated with NECA (10 μM) for 6 hours. The cells were harvested and RNA isolated after each treatment and the gene expression of Il1b and other genes as indicated quantified by real-time PCR using specific primers. FIG. 3I: Primed with LPS for 16 hours and treated with ATP for 20 min, followed by CGS 21680 in the presence or absence of SQ22536 or H-89 Immunoblot analysis of the proIL-1β caspase-1 in cell lysate was performed by specific […] and anti caspase-1 p10 antibodies (FIGS. 3C, 3E-3F, 3I). Data are expressed as the mean±SD from three independent experiments Immunoblots shown are representative results from at least three independent experiments. *p<0.05 determined by Student's t-test.
FIGS. 9A-9H illustrate changes in expression of cytokines and tissue repair genes in peritoneal macrophages in response to adenosine agonists. LPS naive or LPS primed PECs were stimulated with LPS (100 ng ml^−1), CGS21680 (10 μM) or NECA (10 μM) at different time points as indicated. The cells were harvested and RNA isolated after each treatment, and the gene expression of ProIL-1β (Il1b) (FIG. 9A), IL-6 (Il6) (FIG. 9B), IL-4 (Il4) (FIG. 9C), TNF-α (tnfa) (FIG. 9D), TIMP-1 (Timp1) (FIG. 9E), VEGF (vegf) (FIG. 9F), PGK-1 (Pgk1) (FIG. 9G), GLUT-1 (Slc2a1) (FIG. 9H) quantified by real-time PCR using each specific gene primer set as listed. Data are expressed as the mean±SD from three independent experiments. *p<0.05 determined by Student's t-test.
Total RNA was extracted using TRIZOL reagent (Invitrogen), and cDNA was generated with an oligo (dT) primer and the Superscript II system (Invitrogen, USA) followed by analysis using LightCycler 480 system (Roche). q-PCR was performed for Il1b using commercial primer-probe sets (Applied Biosystems Inc.) with DNA master Mix (Roche). Expression of GAPDH was used to standardize the samples, and the results were expressed as a ratio relative to control; q-PCR was performed for tnfa, 116, Txnip, Nlrp3, Hif1a, Timp1, using LightCycler 480 SYBR Green I master mix (Roche). Results were normalized based on the expression of β-actin.

Row | SMILES | ability to supersede LPS tolerance for TIMP-1, VEGF and GLUT-1 gene expression | expression level of IL6 | expression level of Il1b | expression level of Il4 | Il1b mRNA expression | Il1b transcript stability (rate of loss of Il1b mRNA) (transcription stopped with actinomycin D)
1 | CCNC(=O)[C@H]1O[C@@H](n2cnc3c(N)nc(NCCc4ccc(CCC(=O)O)cc4)nc32)[C@H](O)[C@@H]1O [CGS21680] | consistent ability | increase | increase | increase | dramatic increase | did not affect transcript stability
2 | CCNC(=O)[C@H]1O[C@@H](n2cnc3c(N)ncnc32)[C@H](O)[C@@H]1O [NECA, 5′-(N-ethylcarboxamido) adenosine] | consistent ability | increase | increase | increase | dramatic increase | –
